In patent publication US10370366B2 (Flatley Discovery Lab, LLC, priority 2013, dated 2019):

Molecular target: T1, human F508del CFTR (Homo sapiens, UniProt P13569, DEL508-508)
T1 construct: expressed in transfected cells; host or cells: Fisher Rat Thyroid (FRT) cells
Assay: CFTR-YFP High Throughput Assay
Assay type: cell-based
Conditions: FRT cells expressing human F508del CFTR and YFP; for Emax: EMax normalized to the positive control, read-out: % Efficacy
Experimental: Assays for Detecting and Measuring the Effect of Compounds on F508del-CFTR Channels CFTR-YFP High Throughput Assay-CFTR Corrector Protocol:
This protocol is designed to selectively screen small molecule compounds for F508del CFTR corrector activities in the HTS YFP (yellow fluorescent protein) flux assay. In this protocol, the cells are incubated with testing compounds for 24 hours, washed with PBS, stimulated with forskolin and a standard potentiator, and fluorescence in each plate well is measured kinetically read on a 384-well HTS plate reader, such as the Hamamatsu FDSS-6000.
YFP fluorescence intensity values are acquired at high speed before and after iodide buffer is injected to the assay cells. Iodide enters the cells via active CFTR channels in the plasma membrane, and quenches the YFP fluorescence. The rate of fluorescence quenching is proportionate to the total CFTR activity in the cell membrane. F508del CFTR correctors increase the number of CFTR molecules in the testing cell plasma membrane, and thereby accelerate YFP quenching.
This method was initially developed for bench top plate readers (Galietta et al., 2001), and was adapted to the HTS format (Sui et al. Assay Drug Dev. Technol. 2010).
Fisher Rat Thyroid (FRT) cells stably expressing both human F508del CFTR and a halide-sensitive yellow fluorescent protein (YFP-H148Q/I152L 25,22) (Galietta et al. Am. J. Physiol Cell Physiol 281(5), C1734, 2001) were cultured on plastic surface in Coon's modified Ham's F12 medium supplemented with FBS 10%, L-glutamine 2 mM, penicillin 100 U/ml, and streptomycin 100 µg/ml. G418 (0.75-1.0 mg/ml) and zeocin (3.2 ug/ml) were used for selection of FRT cells expressing F508del CFTR and YFP. For primary screening, FRT cells were plated into 384-well black wall, transparent bottom microtiter plates (Costar; Corning Inc.) at a cell density of 20,000-40,000 per well. Test compound was applied to the cells at varying concentrations ranging from 2 nM-40 μM in either a 2-fold or 3-fold dilution series. Cells were incubated in a cell culture incubator at 37° C. with 5% CO2 for 24-26 h. Assay plates were washed with DPBS media (Thermo, cat# SH30028.02) to remove unbound cells and compound. Stimulation media (25 μL) containing 20 μM Forskolin & 30 μM P3 [6-(Ethyl-phenyl-sulfonyl)-4-oxo-1,4-dihydro-quinoline-3-carboxylic acid 2-methoxy-benzylamide] in Hams F-12 coon's modified media was added to the plate wells and incubated at room temperature for 60-120 min. […] (10 mM HEPES, 1 mM MgCl2, 3 mM KCl, 1 mM CaCl2, 150 mM NaI) was then added and fluorescence quench curves (Excitation 500 nm/Emission 540 nm; exposure 136 ms) were immediately recorded on an FDSS-6000 plate reader (Hamamatsu). Quench rates were derived from least squares fitting of the data as described by Sui et al (2010).
CFTR-YFP High Throughput Assay-CFTR Potentiator Protocol:
This protocol is designed to selectively screen small molecule compounds for F508del CFTR potentiator activities in the HTS YFP flux assay. Such compounds act acutely to stimulate CFTR already expressed on the membrane surface. In this protocol, the cells are incubated at 27° C. for 24 hours to homogeneously boost F508del CFTR expression in the cell membrane (low temperature correction), washed with PBS, treated with test compound, and CFTR activity is stimulated with forskolin for 1-2 hr. Measurement of ion flux is initiated by addition of iodide-containing buffer, and YFP quenching is kinetically recorded using a 384-well HTS plate reader, such as the Hamamatsu FDSS-6000.
YFP fluorescence intensity values are acquired at high speed over a 1 min time course before and after iodide buffer is injected to the assay cells. Iodide enters the cells via active CFTR channels in the plasma membrane, and quenches the YFP fluorescence. The rate of fluorescence quenching is proportionate to total CFTR activity in the cell membrane. […]

T1 sequence (P13569 with tags, fused parts or gaps DEL508-508): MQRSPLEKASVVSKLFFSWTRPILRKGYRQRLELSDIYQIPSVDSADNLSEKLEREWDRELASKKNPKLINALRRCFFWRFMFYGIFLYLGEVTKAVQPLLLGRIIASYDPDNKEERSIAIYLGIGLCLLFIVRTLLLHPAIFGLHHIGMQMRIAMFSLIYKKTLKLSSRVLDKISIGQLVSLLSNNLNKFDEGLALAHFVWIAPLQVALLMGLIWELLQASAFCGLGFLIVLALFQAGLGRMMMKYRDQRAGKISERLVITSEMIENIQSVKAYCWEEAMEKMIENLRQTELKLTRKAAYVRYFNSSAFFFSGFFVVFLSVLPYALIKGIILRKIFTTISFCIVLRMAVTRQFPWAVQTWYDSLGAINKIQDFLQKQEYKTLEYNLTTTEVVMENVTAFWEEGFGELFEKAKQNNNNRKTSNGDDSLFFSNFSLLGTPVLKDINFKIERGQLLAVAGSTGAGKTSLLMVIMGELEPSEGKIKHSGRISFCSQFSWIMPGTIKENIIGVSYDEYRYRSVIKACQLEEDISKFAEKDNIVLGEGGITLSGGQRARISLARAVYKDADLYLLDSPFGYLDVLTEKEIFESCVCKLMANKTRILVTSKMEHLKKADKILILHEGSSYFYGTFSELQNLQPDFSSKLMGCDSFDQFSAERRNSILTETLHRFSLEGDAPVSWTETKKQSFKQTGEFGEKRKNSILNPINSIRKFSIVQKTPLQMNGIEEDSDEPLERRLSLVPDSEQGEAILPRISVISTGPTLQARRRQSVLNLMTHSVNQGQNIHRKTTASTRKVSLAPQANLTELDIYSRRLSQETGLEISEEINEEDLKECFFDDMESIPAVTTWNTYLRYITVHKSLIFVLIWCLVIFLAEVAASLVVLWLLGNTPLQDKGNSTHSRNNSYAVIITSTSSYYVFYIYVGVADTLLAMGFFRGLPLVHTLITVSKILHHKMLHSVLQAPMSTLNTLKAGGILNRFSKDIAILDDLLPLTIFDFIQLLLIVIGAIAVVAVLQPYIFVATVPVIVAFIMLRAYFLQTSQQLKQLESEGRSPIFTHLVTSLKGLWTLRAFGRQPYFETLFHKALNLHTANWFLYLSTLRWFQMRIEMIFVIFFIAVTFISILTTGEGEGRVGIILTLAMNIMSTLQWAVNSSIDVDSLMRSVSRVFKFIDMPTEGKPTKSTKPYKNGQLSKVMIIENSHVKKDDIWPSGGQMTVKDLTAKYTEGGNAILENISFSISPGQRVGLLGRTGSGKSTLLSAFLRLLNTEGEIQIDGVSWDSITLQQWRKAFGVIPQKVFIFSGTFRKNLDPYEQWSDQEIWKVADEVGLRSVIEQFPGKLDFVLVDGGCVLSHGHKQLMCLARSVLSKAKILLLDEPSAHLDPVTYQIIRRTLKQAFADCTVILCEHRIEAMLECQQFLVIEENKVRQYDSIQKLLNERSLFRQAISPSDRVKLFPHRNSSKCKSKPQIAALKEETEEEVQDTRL

Row | SMILES | Emax [%] | EC50 [µM]
1 | CCc1ccc(N(CC)C(=O)Cn2nc(Cc3cccnc3)c3ccc(C)cc3c2=O)cc1 [Example 28, N-ethyl-N-(4-ethylphenyl)-2-(7-methyl-1-oxo-4-(pyridin-3-ylmethyl)phthalazin-2(1H)-yl)acetamide] | 30 to 80 | 
2 | CCc1ccc(N(CC)C(=O)Cn2nc(Cc3cccnc3)c3cc(C)ccc3c2=O)cc1 [Example 29, N-ethyl-N-(4-ethylphenyl)-2-(6-methyl-1-oxo-4-(pyridin-3-ylmethyl)phthalazin-2(1H)-yl)acetamide] | 30 to 80 | 
3 | CCc1ccc(N(CC)C(=O)Cn2nc(Cc3cccnc3)c3cccc(C)c3c2=O)cc1 [Example 30, N-ethyl-N-(4-ethylphenyl)-2-(8-methyl-1-oxo-4-(pyridin-3-ylmethyl)phthalazin-2(1H)-yl)acetamide] | 30 to 80 | 
4 | CCc1ccc(N(CC)C(=O)Cn2nc(Cc3cccnc3)c3c(C)cccc3c2=O)cc1 [Example 31, N-ethyl-N-(4-ethylphenyl)-2-(5-methyl-1-oxo-4-(pyridin-3-ylmethyl)phthalazin-2(1H)-yl)acetamide] | 30 to 80 | 
5 | CCc1ccc(N(CC)C(=O)Cn2nc(Cc3cccnc3)c3cc(OC)c(OC)cc3c2=O)cc1 [Example 32, 2-(6,7-dimethoxy-1-oxo-4-(pyridin-3-ylmethyl)phthalazin-2(1H)-yl)-N-ethyl-N-(4-ethylphenyl)acetamide] | 10 to 30 | 
6 | CCc1ccc(N(CC)C(=O)Cn2nc(Cc3cccnc3)c3ccc(C(C)(C)C)cc3c2=O)cc1 [Example 33, 2-(7-(tert-butyl)-1-oxo-4-(pyridin-3-ylmethyl)phthalazin-2(1H)-yl)-N-ethyl-N-(4-ethylphenyl)acetamide] | 30 to 80 | 
7 | CCc1ccc(N(CC)C(=O)Cn2nc(Cc3cccnc3)c3cc(C(C)(C)C)ccc3c2=O)cc1 [Example 34, 2-(6-(tert-butyl)-1-oxo-4-(pyridin-3-ylmethyl)phthalazin-2(1H)-yl)-N-ethyl-N-(4-ethylphenyl)acetamide] | 30 to 80 | 
8 | CCc1ccc(N(CC)C(=O)Cn2nc(Cc3cccnc3)c3ccc(OC)cc3c2=O)cc1 [Example 35, N-ethyl-N-(4-ethylphenyl)-2-(7-methoxy-1-oxo-4-(pyridin-3-ylmethyl)phthalazin-2(1H)-yl)acetamide] | 30 to 80 | 
9 | CCc1ccc(N(CC)C(=O)Cn2nc(Cc3cccnc3)c3cc(OC)ccc3c2=O)cc1 [Example 36, N-ethyl-N-(4-ethylphenyl)-2-(6-methoxy-1-oxo-4-(pyridin-3-ylmethyl)phthalazin-2(1H)-yl)acetamide] | 30 to 80 | 
10 | CCc1ccc(N(CC)C(=O)Cn2nc(Cc3cccnc3)c3cccc(F)c3c2=O)cc1 [Example 37, N-ethyl-N-(4-ethylphenyl)-2-(8-fluoro-1-oxo-4-(pyridin-3-ylmethyl)phthalazin-2(1H)-yl)acetamide] | 30 to 80 | 
11 | CCc1ccc(N(CC)C(=O)Cn2nc(Cc3cccnc3)c3cc(Cl)c(Cl)cc3c2=O)cc1 [Example 38, 2-(6,7-dichloro-1-oxo-4-(pyridin-3-ylmethyl)phthalazin-2(1H)-yl)-N-ethyl-N-(4-ethylphenyl)acetamide] | 30 to 80 | < 10
12 | CCc1ccc(N(CC)C(=O)Cn2nc(Cc3cccnc3)c3ccc(Cl)cc3c2=O)cc1 [Example 39, 2-(7-chloro-1-oxo-4-(pyridin-3-ylmethyl)phthalazin-2(1H)-yl)-N-ethyl-N-(4-ethylphenyl)acetamide] | 30 to 80 | > 20
13 | CCc1ccc(N(CC)C(=O)Cn2nc(Cc3cccnc3)c3cc(Cl)ccc3c2=O)cc1 [Example 40, 2-(6-chloro-1-oxo-4-(pyridin-3-ylmethyl)phthalazin-2(1H)-yl)-N-ethyl-N-(4-ethylphenyl)acetamide] | 30 to 80 | 
14 | CCc1ccc(N(CC)C(=O)Cn2nc(Cc3cccnc3)c3ccncc3c2=O)cc1 [Example 41, N-ethyl-N-(4-ethylphenyl)-2-(4-oxo-1-(pyridin-3-ylmethyl)pyrido[3,4-d]pyridazin-3(4H)-yl)acetamide] | 30 to 80 | < 10
15 | CCc1ccc(N(CC)C(=O)Cn2nc(Cc3cccnc3)c3cnccc3c2=O)cc1 [Example 42, N-ethyl-N-(4-ethylphenyl)-2-(1-oxo-4-(pyridin-3-ylmethyl)pyrido[3,4-d]pyridazin-2(1H)-yl)acetamide] | 10 to 30 | 
16 | CCc1ccc(N(CC)C(=O)Cn2nc(Cc3cccnc3)c3ncccc3c2=O)cc1 [Example 43, N-ethyl-N-(4-ethylphenyl)-2-(5-oxo-8-(pyridin-3-ylmethyl)pyrido[2,3-d]pyridazin-6(5H)-yl)acetamide] | 10 to 30 | > 20
17 | CCN(C(=O)Cn1nc(Cc2cccnc2)c2cc(OC)c(OC)cc2c1=O)c1ccc2c(c1)OC(F)(F)O2 [Example 44, N-(2,2-difluorobenzo[d][1,3]dioxol-5-yl)-2-(6,7-dimethoxy-1-oxo-4-(pyridin-3-ylmethyl)phthalazin-2(1H)-yl)-N-ethylacetamide] | 30 to 80 | 10 to 20
18 | CCN(C(=O)Cn1nc(Cc2cccnc2)c2ccc(C)cc2c1=O)c1ccc2c(c1)OC(F)(F)O2 [Example 45, N-(2,2-difluorobenzo[d][1,3]dioxol-5-yl)-N-ethyl-2-(7-methyl-1-oxo-4-(pyridin-3-ylmethyl)phthalazin-2(1H)-yl)acetamide] | > 80 | 
19 | CCN(C(=O)Cn1nc(Cc2cccnc2)c2cc(C)ccc2c1=O)c1ccc2c(c1)OC(F)(F)O2 [Example 46, N-(2,2-difluorobenzo[d][1,3]dioxol-5-yl)-N-ethyl-2-(6-methyl-1-oxo-4-(pyridin-3-ylmethyl)phthalazin-2(1H)-yl)acetamide] | 30 to 80 | 
20 | CCN(C(=O)Cn1nc(Cc2cccnc2)c2cccc(C)c2c1=O)c1ccc2c(c1)OC(F)(F)O2 [Example 47, N-(2,2-difluorobenzo[d][1,3]dioxol-5-yl)-N-ethyl-2-(8-methyl-1-oxo-4-(pyridin-3-ylmethyl)phthalazin-2(1H)-yl)acetamide] | 30 to 80 | 
21 | CCN(C(=O)Cn1nc(Cc2cccnc2)c2c(C)cccc2c1=O)c1ccc2c(c1)OC(F)(F)O2 [Example 48, N-(2,2-difluorobenzo[d][1,3]dioxol-5-yl)-N-ethyl-2-(5-methyl-1-oxo-4-(pyridin-3-ylmethyl)phthalazin-2(1H)-yl)acetamide] | 30 to 80 | 
22 | CCN(C(=O)Cn1nc(Cc2cccnc2)c2cc(C(C)(C)C)ccc2c1=O)c1ccc2c(c1)OC(F)(F)O2 [Example 49, 2-(6-(tert-butyl)-1-oxo-4-(pyridin-3-ylmethyl)phthalazin-2(1H)-yl)-N-(2,2-difluorobenzo[d][1,3]dioxol-5-yl)-N-ethylacetamide] | > 80 | 
23 | CCN(C(=O)Cn1nc(Cc2cccnc2)c2ccc(C(C)(C)C)cc2c1=O)c1ccc2c(c1)OC(F)(F)O2 [Example 50, 2-(7-(tert-butyl)-1-oxo-4-(pyridin-3-ylmethyl)phthalazin-2(1H)-yl)-N-(2,2-difluorobenzo[d][1,3]dioxol-5-yl)-N-ethylacetamide] | > 80 | 
24 | CCN(C(=O)Cn1nc(Cc2cccnc2)c2cc(OC)ccc2c1=O)c1ccc2c(c1)OC(F)(F)O2 [Example 51, N-(2,2-difluorobenzo[d][1,3]dioxol-5-yl)-N-ethyl-2-(6-methoxy-1-oxo-4-(pyridin-3-ylmethyl)phthalazin-2(1H)-yl)acetamide] | 30 to 80 | 
25 | CCN(C(=O)Cn1nc(Cc2cccnc2)c2ccc(OC)cc2c1=O)c1ccc2c(c1)OC(F)(F)O2 [Example 52, N-(2,2-difluorobenzo[d][1,3]dioxol-5-yl)-N-ethyl-2-(7-methoxy-1-oxo-4-(pyridin-3-ylmethyl)phthalazin-2(1H)-yl)acetamide] | 30 to 80 | 
